The term IC50 denotes the point on the concentration scale where inhibition reaches its midpoint.

Each structure is given as a SMILES string.

The experiment has as its target T1, human NPY Y5 receptor (Homo sapiens, UniProt Q15761).
T1 construct: expressed in transfected cells; host or cells: COS-7, CHO and LM(tk-) cells; vectors pcDNA3, pRc/RSV, pCI-neo; membrane preparation
T1 sequence (Q15761 1-445): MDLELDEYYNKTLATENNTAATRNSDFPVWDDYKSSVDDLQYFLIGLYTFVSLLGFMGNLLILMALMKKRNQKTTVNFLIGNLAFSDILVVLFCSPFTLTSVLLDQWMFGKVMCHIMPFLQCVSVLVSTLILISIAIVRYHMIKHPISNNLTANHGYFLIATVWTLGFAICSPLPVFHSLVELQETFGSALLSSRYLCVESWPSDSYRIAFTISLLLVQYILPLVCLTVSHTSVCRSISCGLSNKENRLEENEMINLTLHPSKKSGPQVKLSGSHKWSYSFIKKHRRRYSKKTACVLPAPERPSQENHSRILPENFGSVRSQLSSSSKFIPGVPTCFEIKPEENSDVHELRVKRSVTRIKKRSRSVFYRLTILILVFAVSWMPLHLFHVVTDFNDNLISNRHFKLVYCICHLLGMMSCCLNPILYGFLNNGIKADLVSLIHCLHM
The experiment can be described thus: NPY binding inhibition test. The following applies: [125I]peptideYY binding to membrane sample from cells expressing NPY Y5 receptor, 25° C., 2 hours; read-out: NPY receptors binding inhibition IC50. From the text:
Pharmacological Test (NPY Binding Inhibition Test)
A sequence coding for human NPY Y5 receptor (c.f. International patent publication number W096/16542) was cloned into expression vectors pcDNA3, pRc/RSV (made by Invitrogen Inc.) and pCI-neo (made by Promega Inc.). The expression vectors thus obtained were transfected to host cells COS-7, CHO and LM(tk-) (American Type Culture Collection) by cationic lipid method (Proceedings of the National Academy of Sciences of the United States of America, vol. 84: p. 7413(1987)) to give NPY Y5 receptor expression cells.
A membrane sample prepared from the cells which expressed NPY Y5 receptor was incubated together with a test compound and [^125I]peptideYY (made by NEN) (20,000 cpm) in an assay buffer (25 mM Tris buffer, pH 7.4, containing 10 mM magnesium chloride, 1 mM phenylmethylsulfonyl fluoride, 0.1% bacitracin and 0.5% bovine serum albumin) at 25° C. for 2 hours, then filtered through a glass filter GF/C and washed with 5 mM Tris buffer (pH7.4) containing 0.3% BSA. The radioactivity of the cake on the glass filter was measured. Non-specific binding was measured in the presence of 1 μM peptide YY, and 50% Inhibitory Concentration (IC50) of the test compound against specific peptideYY binding was determined (Endocrinology, vol. 131: p. 2090(1992)).

Turning to `O=C1OC2(CCC(C(=O)NC3CCC(c4ccccc4)CC3)CC2)c2ccccc21` (stereo not drawn) [Example 1, trans-3′-oxo-N-(trans-4-phenylcyclohexyl)-spiro[cyclohexane-1,1′(3′H)-isobenzofuran]-4-carboxamide], the IC50 was 2.5 nM. The same measure for `O=C1OC2(CCC(C(=O)NC3CCN(c4ccccc4F)CC3)CC2)c2ccccc21` (stereo not drawn) [Example 5, Trans-N-[1-(2-fluorophenyl)-4-piperidyl]-3′-oxo-spiro[cyclohexane-1,1′(3′H)-isobenzofuran]-4-carboxamide]: 1.7 nM; for `O=C1OC2(CCC(C(=O)NC3CCC(c4cccc(F)c4)CC3)CC2)c2ncccc21` (stereo not drawn) [Example 27, Trans-N-[trans-4-(3-fluorophenyl)cyclohexyl]-3-oxospiro[7-azaisobenzofuran-1(3H),1′-cyclohexane]-4′-carboxamide]: 3.6 nM; for `O=C1OC2(CCC(C(=O)NC(CNCc3ccccc3)Cc3ccccc3)CC2)c2ccccc21` (centres unmarked) [Example 32]: 1.7 nM. As for `CS(=O)(=O)N1CC2(CCC(C(=O)NC3CCN(c4cccc(F)c4)CC3)CC2)c2ccccc21` (stereo not drawn) [Example 36, Trans-N-[1-(3-fluorophenyl)-4-piperidyl]-1-methanesulfonyl-spiro[indoline-3,1′-cyclohexane]-4′-carboxamide], the IC50 came to 0.8 nM. The same measure for `CS(=O)(=O)N1CC2(CCC(C(=O)NC3CCN(c4ccccc4)C3)CC2)c2ccccc21` [Example 41, Trans-1-methanesulfonyl-N-[(3S)-1-phenyl-3-pyrrolidinyl]spiro[indoline-3,1′-cyclohexane]-4′-carboxamide]: 1.2 nM.

For the molecule `CS(=O)(=O)N1CC2(CCC(C(=O)NC(CNCc3ccccc3)Cc3ccccc3)CC2)c2ccccc21` [Example 45, Trans-N-[(S)-1-benzyl-2-(benzylamino)ethyl]-1-methylsulfonylspiro[indoline-3,1′-cyclohexane]-4′-carboxamide], the half-maximal inhibitory concentration (IC50) turned out to be 0.69 nM. The figure for `CS(=O)(=O)N1CC2(CCC(C(=O)NC(Cc3ccncc3)C(=O)NCc3ccccc3)CC2)c2ccccc21` (stereo not drawn) [Example 46, Trans-N-[1-benzylcarbamoyl-2-(4-pyridyl)ethyl]-1-methylsulfonylspiro[indoline-3,1′-cyclohexane]-4′-carboxamide] is 2 nM.
